Test results published in US10383831B2, “2,4,6-trialkoxystryl aryl sulfones, sulfonamides and carboxamides, and methods of preparation and use” (Temple University—Of The Commonwealth System Of Higher …, priority 2015, dated 2019).

Key:
Assay type in all cases: cell-based
[1] = tested on: K562 (chronic myelogenous leukaemia); assay: Cytotoxicity assay, K562 tumor cells; settings: Homo sapiens, 96 hours treatment
Method: (§1) The effect of the compounds of the invention on tumor cells was determined by the assay described by Latham et al., Oncogene 12:827-837 (1996). Tumor cells K562 (chronic myelogenous leukaemia) or DU145 (prostate cancer) were plated in 12-well dishes at a cell density of 2.5×10^4 cells well. The plated cells were treated 24 hours later with a compound of the invention dissolved in DMSO at multiple concentrations ranging from 0.001 to 10 μM. The plates were examined 96 hours later under an inverted microscope, Olympus CK-2 using a 10× objective, and compound activity was noted by physical observation. When necessary, the total number of viable cells was determined by trypsinizing the wells and counting the number of viable cells, as determined by trypan blue exclusion, using a hemacytometer.

[2] = tested on: RS4; 11; assay: Cytotoxicity assay (viable cell count, trypan blue), RS4; 11; settings: Homo sapiens, 11, ALL-B-Cell Precursor, 96 hours continuous treatment
Method: (§2) Cells of the cell lines listed in Table 18 (1×10^5) were plated into 6-well dishes. Twenty-four hours later, the compound of Example 1, i.e., (Z)-ethyl 3-((2-methoxy-5-(((E)-2,4,6-trimethoxystyrylsulfonyl)methyl) phenyl)amino)acrylate, or the compound of Comparative Example 1, i.e., sodium (E)-2-(5-((2,4,6-trimethoxystyrylsulfonyl)methyl)-2-methoxyphenylamino) acetate (rigosertib) was added at different concentrations over a 4 log dilution (0.001 to 10 μM). The total number of viable cells was determined after 96 hours of continuous treatment by staining with trypan blue and counting the number of non-staining cells (viable) remaining in each well using a hemacytometer. The percentage of viable cells remaining was calculated as follows: # viable cells (compound treated)/# viable cells (DMSO treated)*100. The GI50 (the concentration of drug resulting in 50% net loss of growth inhibition) was determined.

[3] = tested on: Caov-3; assay: Cytotoxicity assay (viable cell count, trypan blue), Caov-3; settings: Homo sapiens; Caov-3, Ovarian; 96 hours continuous treatment
Method: as §2

[4] = tested on: K562; assay: Cytotoxicity assay (viable cell count, trypan blue), K562; settings: Homo sapiens; K562, Chronic Myelogenous Leukemia; 96 hours continuous treatment
Method: as §2

[5] = tested on: DU145 (prostate cancer); assay: Cytotoxicity assay, DU145 tumor cells; settings: Homo sapiens, DU-145, 96 hours treatment
Method: as §1

[6] = tested on: MIA-PaCa-2; assay: Cytotoxicity assay (viable cell count, trypan blue), MIA-PaCa-2; settings: Homo sapiens; MIA-PaCa-2, Pancreatic; 96 hours continuous treatment
Method: as §2

[7] = tested on: Z1385; assay: Cytotoxicity assay (viable cell count, trypan blue), Z1385; settings: Z1385, Mantle Cell Lymphoma; 96 hours continuous treatment
Method: as §2

[8] = tested on: CEM; assay: Cytotoxicity assay (viable cell count, trypan blue), CEM; settings: Homo sapiens, CCRF-CEM, T-Cell Lymphoma, 96 hours continuous treatment
Method: as §2

[9] = tested on: MDA-MB-231; assay: Cytotoxicity assay (viable cell count, trypan blue), MDA-MB-231; settings: Homo sapiens; MDA-MB-231, Breast; 96 hours continuous treatment
Method: as §2

[10] = tested on: N417; assay: Cytotoxicity assay (viable cell count, trypan blue), N417; settings: N417, Small Cell Lung Carcinoma; 96 hours continuous treatment
Method: as §2

[11] = tested on: DU145; assay: Cytotoxicity assay (viable cell count, trypan blue), DU145; settings: Homo sapiens, DU-145; DU145, Prostate; 96 hours continuous treatment
Method: as §2

[12] = tested on: 2008; assay: Cytotoxicity assay (viable cell count, trypan blue), 2008; settings: 2008, Ovarian; 96 hours continuous treatment
Method: as §2

[13] = tested on: HCT-116; assay: Cytotoxicity assay (viable cell count, trypan blue), HCT-116; settings: Homo sapiens; HCT-116, Colo-Rectal; 96 hours continuous treatment
Method: as §2

[14] = tested on: tumor cell lines; assay: Cytotoxicity assay, comparison across the cell lines listed in Table 18; settings: across the cell lines of Table 18; against some tumor types as much as 10-fold or even 100-fold
Method: as §2

[15] = tested on: HT-29; assay: Cytotoxicity assay (viable cell count, trypan blue), HT-29; settings: Homo sapiens; HT-29, Colo-Rectal; 96 hours continuous treatment
Method: as §2

[16] = tested on: HCT-15; assay: Cytotoxicity assay (viable cell count, trypan blue), HCT-15; settings: Homo sapiens; HCT-15, Colo-Rectal; 96 hours continuous treatment
Method: as §2

[17] = tested on: H1299; assay: Cytotoxicity assay (viable cell count, trypan blue), H1299; settings: Homo sapiens, NCI-H1299; H1299, Non-Small Cell Lung Carcinoma; 96 hours continuous treatment
Method: as §2

[18] = tested on: T-24; assay: Cytotoxicity assay (viable cell count, trypan blue), T-24; settings: Homo sapiens; T-24, Bladder; 96 hours continuous treatment
Method: as §2

[19] = tested on: GRANTA-519; assay: Cytotoxicity assay (viable cell count, trypan blue), GRANTA-519; settings: Homo sapiens; GRANTA-519, Mantle Cell Lymphoma; 96 hours continuous treatment
Method: as §2

[20] = tested on: A549; assay: Cytotoxicity assay (viable cell count, trypan blue), A549; settings: Homo sapiens; A549, Non-Small Cell Lung Carcinoma; 96 hours continuous treatment
Method: as §2

[21] = tested on: 5367; assay: Cytotoxicity assay (viable cell count, trypan blue), 5367; settings: 5367, Bladder; 96 hours continuous treatment
Method: as §2

[22] = tested on: DAUDI; assay: Cytotoxicity assay (viable cell count, trypan blue), DAUDI; settings: Homo sapiens, B-Cell Lymphoma, 96 hours continuous treatment
Method: as §2

[23] = tested on: PC-3; assay: Cytotoxicity assay (viable cell count, trypan blue), PC-3; settings: Homo sapiens; PC-3, Prostate; 96 hours continuous treatment
Method: as §2

[24] = tested on: MOLT-4; assay: Cytotoxicity assay (viable cell count, trypan blue), MOLT-4; settings: Homo sapiens; MOLT-4, T-Cell Lymphoma; 96 hours continuous treatment
Method: as §2

[25] = tested on: UM-UC-3; assay: Cytotoxicity assay (viable cell count, trypan blue), UM-UC-3; settings: Homo sapiens, UMUC3; UM-UC-3, Bladder; 96 hours continuous treatment
Method: as §2

[26] = tested on: WM1617; assay: Cytotoxicity assay (viable cell count, trypan blue), WM1617; settings: WM1617, Melanoma; 96 hours continuous treatment
Method: as §2

CCOC(=O)/C=C\Nc1cc(CS(=O)(=O)/C=C/c2c(OC)cc(OC)cc2OC)ccc1OC [Ex. 1, (Z)-ethyl 3-((2-methoxy-5-(((E)-2,4,6-trimethoxystyrylsulfonyl)methyl)phenyl)amino) acrylate]
IC50 [1]: 0.002 µM
GI50 [2]: 7.5 nM
GI50 [3]: 4 nM
GI50 [4]: 3 nM
IC50 [5]: 0.006 µM
GI50 [6]: 5 nM
GI50 [7]: 6 nM
GI50 [8]: 7.5 nM
GI50 [9]: 7.5 nM
GI50 [10]: 8 nM
GI50 [11]: 10 nM
GI50 [12]: 6 nM
GI50 [13]: 7.5 nM
fold more active than the Comparative Example 1 compound [14]: at least 4 fold
GI50 [15]: 15 nM
GI50 [16]: 7.5 nM
GI50 [17]: 4 nM
GI50 [18]: 4 nM
GI50 [19]: 6 nM
GI50 [20]: 7.5 nM
GI50 [21]: 3 nM
GI50 [22]: 7.5 nM
GI50 [23]: 7.5 nM
GI50 [24]: 7.5 nM
GI50 [25]: 3 nM
GI50 [26]: 3 nM
